Measurements taken from patent US20220041623A1, “INDOLE MACROCYCLIC DERIVATIVE, PREPARATION METHOD THEREOF AND APPLICATION THEREOF IN MEDICINE” (JIANGSU HENGRUI MEDICINE CO., LTD., priority 2018, published 2022).
Where two headings read alike, the source gives them in different places.

Assays:
[1] = system: AMO-1 cells; assay: Cell proliferation experiment (intracellular ATP, CellTiter-Glo), AMO-1; assay type: cell-based; settings: Homo sapiens, AMO1, 72 h, read-out: AMO-1 IC50
Procedure: (§1) The following method evaluates the inhibition effect of the compound of the present invention on the proliferation of AMO-1 and MV-4-11 cells according to IC50 value by detecting intracellular ATP content. The experimental method is briefly described as follows.
1. AMO-1, human bone marrow plasmacytoma (Nanjing Cobioer Biosciences Co., Ltd., CBP60242)
(§2) AMO-1 cells were cultured in RPMI1640 medium (containing 20% FBS), and MV-4-11 cells were cultured in IMDM medium (containing 10% FBS). The cells were passaged for 2 to 3 times a week, with a passage ratio of 1:4 or 1:6. During the passage, the cells were transferred to a centrifuge tube and centrifuged at 1200 rpm for 3 minutes. The supernatant was discarded, and fresh medium was added to resuspend the cells. […] 100 μL of complete medium was added to the periphery of the 96-well plate. The plate was incubated in an incubator for 24 hours (37° C., 5% CO2).
(§3) The test sample was diluted to 20 mM with DMSO, and then diluted to 9 concentrations by diluting in 4-fold gradient. Blank and control wells were set. 5 μL of the test compound solution formulated as gradient concentration was added to 95 μL of fresh medium. 10 µL of the above drug-containing medium solution was added to the plate. The plate was incubated in an incubator for 3 days (37° C., 5% CO2). In the 96-well cell culture plate, 50 μL of CellTiter-Glo reagent was added to each well, and the plate was left to stand in the dark at room temperature for 5 to 10 minutes. The chemiluminescence signal value was read in PHERAstar, and the data was processed by GraphPad software.

[2] = biological target: T1, MCL-1 protein (Homo sapiens, UniProt Q07820); assay: MCL-1 protein binding experiment (HTRF, MCL-1/Bim); settings: for inhibition at up to 10 µM: read-out: Maximum inhibition rate (%); for Ki: HTRF, 0.1 nM His-MCL-1, 2.5 nM bio-Bim, room temperature
T1 construct: Bim peptide bought from R&D, 3526/1 NA
Procedure: The following method was used to determine the binding ability of the compound of the present invention to MCL-1 protein. The experimental method is briefly described as follows.
MCL-1 inhibitors can bind to MCL-1 protein to prevent the binding of MCL-1 to Bim protein. The experiment evaluates the binding ability of MCL-1 inhibitor to MCL-1 protein by detecting the binding of MCL-1 to Bim protein through HTRF method, and the activity of the compound was evaluated according to the Ki value.
The mixture was incubated at room temperature for 2 hours, followed by the detection of fluorescence signals at 620 nm and 665 nm by PHERAstar. The data was processed by GraphPad software.

[3] = system: MV-4-11 cells; assay: Cell proliferation experiment (intracellular ATP, CellTiter-Glo), MV-4-11; assay type: cell-based; settings: Homo sapiens, MV4-11, 72 h, read-out: MV-4-11 IC50
Procedure: as §1, §2, §3

[4] = biological target: T2, 2C19 (Homo sapiens, UniProt P33261); assay: Inhibition of human liver microsomal P450 subenzyme CYP2C19; assay type: in vitro ADME; settings: human liver microsomes, (S)-mephenytoin metabolic site, 30 minutes incubation
T2 construct: Human liver microsomes (Corning Gentest, Cat No. 452161, Lot No. 6123001, 33 Donors); tissue Corning Gentest 452161; host or cells: human liver microsomes, pool of 33 donors
Procedure: (§4) The inhibition effect of the compound of the present invention on the enzymatic activity of human liver microsomal P450 subenzymes CYP2C9 and 2C19 was determined by the following experimental method.
(§5) 6. CYP probe substrate for 2C9 (Diclofenac/4 μM, SIGMA, Cat No. D6899-10G) and CYP probe substrate for 2C19 ((S)-Mephenytoin/20 μM, J&K Scientific Ltd., CatNo. 303768); positive control inhibitor for 2C9 ([…], SIGMA, Cat No. 526-08-9) and positive control inhibitor for 2C19 (Ticlopidine, SIGMA, Cat No. T6654-1G).
(§6) 100 mM PBS buffer solution was formulated. 2.5 mg/mL microsome solution, 15 mM MgCl2 solution and 5 mM NADPH solution were formulated with the buffer solution. 30 mM stock solution was diluted with DMSO into a serial solution I with concentrations of 10 mM, 3 mM, 1 mM, 0.3 mM, 0.1 mM, 0.03 mM, […] and 0 mM. The above serial solution I was diluted for 200 times with the phosphate buffer solution (PBS) to obtain a serial test solution II (150, 50, 15, 5, 1.5, 0.15, 0.015, 0 μM). […]
(§7) The data were calculated by Graphpad Prism to obtain the IC50 values of the compound for the diclofenac metabolic site of CYP2C9 and (S)-mephenytoin metabolic site of 2C19. which are shown in Table 3.

[5] = biological target: T3, CYP2C9 (Homo sapiens, UniProt P11712); assay: Inhibition of human liver microsomal P450 subenzyme CYP2C9; assay type: in vitro ADME; settings: human liver microsomes, diclofenac metabolic site, 30 minutes incubation; read-out: 2C9 IC50
T3 construct: Human liver microsomes (Corning Gentest, Cat No. 452161, Lot No. 6123001, 33 Donors); tissue Corning Gentest 452161; host or cells: human liver microsomes, pool of 33 donors
Procedure: as §4, §5, §6, §7

[6] = AMO-1 cells, incubated 3 days, CellTiter-Glo
[7] = HTRF MCL-1/Bim binding, initial concentration 10 μM
[8] = MV-4-11 cells, incubated 3 days, CellTiter-Glo

T1 sequence (Q07820 171-327): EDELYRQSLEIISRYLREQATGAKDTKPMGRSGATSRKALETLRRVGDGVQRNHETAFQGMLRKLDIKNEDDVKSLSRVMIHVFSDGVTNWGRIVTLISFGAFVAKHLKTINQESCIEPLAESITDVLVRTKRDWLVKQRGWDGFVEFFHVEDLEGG
T3 sequence (P11712 whole entry): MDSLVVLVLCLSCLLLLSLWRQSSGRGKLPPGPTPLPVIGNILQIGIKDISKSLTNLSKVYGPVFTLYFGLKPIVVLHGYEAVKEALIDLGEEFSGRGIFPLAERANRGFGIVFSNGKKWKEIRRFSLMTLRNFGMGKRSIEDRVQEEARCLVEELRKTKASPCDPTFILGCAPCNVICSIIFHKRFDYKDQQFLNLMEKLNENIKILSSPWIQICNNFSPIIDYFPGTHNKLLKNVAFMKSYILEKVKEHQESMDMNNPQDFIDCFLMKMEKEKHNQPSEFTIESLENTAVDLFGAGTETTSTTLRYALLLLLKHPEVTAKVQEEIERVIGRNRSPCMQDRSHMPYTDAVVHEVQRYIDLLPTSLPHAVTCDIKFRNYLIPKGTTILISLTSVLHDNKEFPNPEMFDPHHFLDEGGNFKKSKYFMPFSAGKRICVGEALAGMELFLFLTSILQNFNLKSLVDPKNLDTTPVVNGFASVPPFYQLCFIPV
T2 sequence (P33261 whole entry): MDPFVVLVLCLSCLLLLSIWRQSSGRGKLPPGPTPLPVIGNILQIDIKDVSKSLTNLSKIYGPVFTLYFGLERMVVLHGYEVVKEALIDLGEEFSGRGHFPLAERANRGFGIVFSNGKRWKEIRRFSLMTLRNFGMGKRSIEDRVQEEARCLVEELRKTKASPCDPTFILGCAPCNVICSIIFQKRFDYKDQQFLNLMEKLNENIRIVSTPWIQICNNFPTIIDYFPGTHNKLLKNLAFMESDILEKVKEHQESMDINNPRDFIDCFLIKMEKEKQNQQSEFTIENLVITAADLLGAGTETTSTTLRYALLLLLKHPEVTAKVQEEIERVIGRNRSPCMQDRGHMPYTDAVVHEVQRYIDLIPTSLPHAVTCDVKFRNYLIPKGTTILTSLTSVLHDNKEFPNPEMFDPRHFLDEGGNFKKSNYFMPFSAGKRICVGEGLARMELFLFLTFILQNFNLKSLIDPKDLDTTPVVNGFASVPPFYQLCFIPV

| Compound | inhibition at up to 10 µM [2, 7] | Ki [2] | IC50 [3, 8] | IC50 [3] | IC50 [4] | IC50 [5] | Maximum inhibition rate (%) [2, 7] | IC50 [1, 6] | IC50 [1] |
| --- | --- | --- | --- | --- | --- | --- | --- | --- | --- |
| Cc1c(C(=O)O)n2c3ccc(Cl)c(c13)-c1c(nn(C)c1C)CSCc1cc(n(C)n1)CSc1cc3c(c(c1)OCCC2)CCCC3 (single isomer, unassigned) [Example 7-1, (Ra)-17-Chloro-5,13,14,22-tetramethyl-28-oxa-2,9-dithia-5,6,12,13,24-pentaazaheptacyclo[27.7.1.1^4,7.0^11,15.0^16,21.0^20,24.0^30,35]octatriaconta-1(37),4(38),6,11,14,16,18,20,22,29,35-undecaene-23-carboxylic acid] | 99% | 0.74 nM | 71 nM |  |  |  |  | 70 nM |  |
| Cc1c(C(=O)O)n2c3ccc(Cl)c(c13)-c1c(nn(C)c1C)CSCc1cc(n(C)n1)CSc1cc(cc3c1CCC3)OCCC2 (single isomer, unassigned) [Example 12-1, (Ra)-17-Chloro-5,13,14,22-tetramethyl-28-oxa-2,9-dithia-5,6,12,13,24-pentaazaheptacyclo[27.6.1.1^4,7.0^11,15.0^16,21.0^20,24.0^30,35]heptatriaconta-1(36),4(37),6,11,14,16,18,20,22,29,31(35)-undecaene-23-carboxylic acid] | 100% | 0.24 nM | 36 nM |  | > 30000 nM | > 30000 nM |  | 34 nM |  |
| Cc1c(C(=O)O)n2c3ccc(Cl)c(c13)-c1c(nn(C)c1C)CSCc1cc(n(C)n1)CCc1cc3c(c(c1)OCCC2)CCCC3 (single isomer, unassigned) [Example 8-1, (Ra)-17-Chloro-5,13,14,22-tetramethyl-28-oxa-9-thia-5,6,12,13,24-pentaazaheptacyclo[27.7.1.1^4,7.0^11,15.0^16,21.0^20,24.0^30,35]octatriaconta-1(37),4(38),6,11,14,16,18,20,22,29,35-undecaene-23-carboxylic acid] | 100% | 0.46 nM | 136 nM |  |  |  |  | 100 nM |  |
| Cc1c2c(nn1C)CSCc1cc(n(C)n1)CSc1cc(c3ccccc3c1)OCCCn1c(C(=O)O)cc3c-2c(Cl)ccc31 (single isomer, unassigned) [Example 1-2, (Sa)-17-Chloro-5,13-14-trimethyl-28-oxa-2,9-dithia-5,6,12,13,24-pentaazaheptacyclo[27.7.1.1^4,7.0^11,15.0^16,21.0^20,24.0^30,35]octatriaconta-1(37),4(38),6,11,14,16,18,20,22,29,31,33,35-tridecaene-23-carboxylic acid] |  | 56 nM |  |  |  |  | 100% |  |  |
| Cc1c(C(=O)O)n2c3ccc(Cl)c(c13)-c1c(nn(C)c1C)CN(C)Cc1cc(n(C)n1)CSc1cc3c(c(c1)OCCC2)CCCC3 [Example 9, 17-Chloro-5,9,13,14,22-pentamethyl-28-oxa-2-thia-5,6,9,12,13,24-hexaazaheptacyclo[27.7.1.1^4,7.0^11,15.0^16,21.0^20,24.0^30,35]octatriaconta-1(37),4(38),6,11,14,16,18,20,22,29,35-undecaene-23-carboxylic acid] | 100% | 1.5 nM |  |  |  |  |  |  |  |
| Cc1c2c(nn1C)CSCc1cc(n(C)n1)CSc1cc(c3ccccc3c1)OCCCn1c(C(=O)O)cc3c-2c(Cl)ccc31 [Example 1, 17-Chloro-5,13-14-trimethyl-28-oxa-2,9-dithia-5,6,12,13,24-pentaazaheptacyclo[27.7.1.1^4,7.0^11,15.0^16,21.0^20,24.0^30,35]octatriaconta-1(37),4(38),6,11,14,16,18,20,22,29,31,33,35-tridecaene-23-carboxylic acid] | 100% | 2.39 nM |  |  |  |  |  |  |  |
| Cc1c2c(nn1C)CSCc1cc(n(C)n1)CSc1cc(c3ccccc3c1)OCCCn1c(C(=O)O)cc3c-2c(Cl)ccc31 (single isomer, unassigned) [Example 1-1, (Ra)-17-Chloro-5,13-14-trimethyl-28-oxa-2,9-dithia-5,6,12,13,24-pentaazaheptacyclo[27.7.1.1^4,7.0^11,15.0^16,21.0^20,24.0^30,35]octatriaconta-1(37),4(38),6,11,14,16,18,20,22,29,31,33,35-tridecaene-23-carboxylic acid] | 100% | 0.36 nM |  |  |  |  |  |  |  |

Stronger by Ki [2], values ahead:

| inhibition at up to 10 µM [2, 7] | Ki [2] | IC50 [3, 8] | IC50 [3] | IC50 [4] | IC50 [5] | Maximum inhibition rate (%) [2, 7] | Compound | IC50 [1, 6] | IC50 [1] |
| --- | --- | --- | --- | --- | --- | --- | --- | --- | --- |
| 100% | 0.22 nM | 63 nM |  |  |  |  | Cc1c(C(=O)O)n2c3ccc(Cl)c(c13)-c1c(nn(C)c1C)CSCc1cc(n(C)n1)CSc1cc(cc3c1CCC3)OCCC2 [Example 12, 17-Chloro-5,13,14,22-tetramethyl-28-oxa-2,9-dithia-5,6,12,13,24-pentaazaheptacyclo[27.6.1.1^4,7.0^11,15.0^16,21.0^20,24.0^30,35]heptatriaconta-1(36),4(37),6,11,14,16,18,20,22,29,31(35)-undecaene-23-carboxylic acid] | 63 nM |  |
| 100% | 0.15 nM |  | 39 nM |  |  |  | Cc1c(C(=O)O)n2c3ccc(Cl)c(c13)-c1c(nn(C)c1C)CSCc1cc(n(C)n1)CCc1cc(c3ccccc3c1)OCCC2 (single isomer, unassigned) [Example 4-1, (Ra)-17-Chloro-5,13,14,22-tetramethyl-28-oxa-9-thia-5,6,12,13,24-pentaazaheptacyclo[27.7.1.1^4,7.0^11,15.0^16,21.0^20,24.0^30,35]octatriaconta-1(37),4(38),6,11,14,16,18,20,22,29,31,33,35-tridecaene-23-carboxylic acid] |  | 37 nM |
| 100% | 0.11 nM | 42 nM |  |  |  |  | Cc1c(C(=O)O)n2c3ccc(Cl)c(c13)-c1c(nn(C)c1C)CSCc1cc(n(C)n1)CSc1cc(c3ccccc3c1)OCCC2 (single isomer, unassigned) [Example 2-1, (Ra)-17-Chloro-5,13,14,22-tetramethyl-28-oxa-2,9-dithia-5,6,12,13,24-pentaazaheptacyclo[27.7.1.1^4,7.0^11,15.0^16,21.0^20,24.0^30,35]octatriaconta-1(37),4(38),6,11,14,16,18,20,22,29,31,33,35-tridecaene-23-carboxylic acid] | 76 nM |  |
